Experiments:
[1] = test system: LTB4 in Rat basophilic leukemia (RBL-1) cells; assay: LTB4 cell-based assay (RBL-1 cells, A23187, ELISA); settings: A23187 10 μM, LTB4 by ELISA
Procedure: Rat basophilic leukemia (RBL-1) cells were inoculated at a 24-well plate to a final concentration of 7.5×10^5 cells/well and incubated for 2 hours, so that they adhered to the bottom of the plate. […] The well plate was centrifuged at 1,500 g for 20 minutes to isolate the supernatant and then the amount of LTB4 of the supernatant was measured with ELISA analysis.

Mouse ear edema = assay: In vivo bioassay (mouse ear edema model, arachidonic acid); parameters: species or system ICR mouse; settings: oral in 0.5% methylcellulose 1 hour before arachidonic acid, compared with control; for Mouse ear edema model (in vivo assay): Thickness: ear thickness after 1 hour; for Mouse ear edema model (in vivo assay): MPO: myeloperoxidase activity of ear tissue
Procedure: 3. In Vivo Bioassay (Mouse Ear Edema Model)
The inside of the right ear of an ICR mouse (6 weeks old) was treated with 2 mg of arachidonic acid dissolved in 20 μL of acetone for 1 hour to induce an inflammation.
After 1 hour, the difference of thickness T (%) between the arachidonic acid-treated right ear and the non-treated left ear was measured with a microgauge.
Further, myeloperoxidase (MPO) activity was measured in order to measure the amount of neutrophil penetrated into the tissue as a primary marker for induced inflammation. The tissue obtained from the arachidonic acid-treated right ear was homogenized in a 50 mM phosphate buffer solution (pH 6.0) containing 0.5% hexadecyltrimethylammonium bromide (HTAB), centrifuged and then the MPO activity (MPO %) of the supernatant was measured.
To measure in vivo activity of each test compound, each compound was dissolved in 0.5% methylcellulose (10 mL/kg) and orally administered to a mouse 1 hour before treatment with arachidonic acid. Then, arachidonic acid was treated for 1 hour and the thickness of ear and MPO activity were measured. In vivo activity of each test compound was estimated by comparing the test result with that of a control which was treated only with arachidonic acid, without the test compound.

5-LO = target: T1, 5-LO (Homo sapiens, UniProt P09917); assay: 5-Lipoxygenase enzyme assay, bioassay using FOX reagent; format: biochemical; settings: test compound 1 μM; lysate from 5-LO expressed insect cells; arachidonic acid 40 μM
T1 construct: made in house; host or cells: insect cells (crude lysate)
T1 sequence (P09917 1-674): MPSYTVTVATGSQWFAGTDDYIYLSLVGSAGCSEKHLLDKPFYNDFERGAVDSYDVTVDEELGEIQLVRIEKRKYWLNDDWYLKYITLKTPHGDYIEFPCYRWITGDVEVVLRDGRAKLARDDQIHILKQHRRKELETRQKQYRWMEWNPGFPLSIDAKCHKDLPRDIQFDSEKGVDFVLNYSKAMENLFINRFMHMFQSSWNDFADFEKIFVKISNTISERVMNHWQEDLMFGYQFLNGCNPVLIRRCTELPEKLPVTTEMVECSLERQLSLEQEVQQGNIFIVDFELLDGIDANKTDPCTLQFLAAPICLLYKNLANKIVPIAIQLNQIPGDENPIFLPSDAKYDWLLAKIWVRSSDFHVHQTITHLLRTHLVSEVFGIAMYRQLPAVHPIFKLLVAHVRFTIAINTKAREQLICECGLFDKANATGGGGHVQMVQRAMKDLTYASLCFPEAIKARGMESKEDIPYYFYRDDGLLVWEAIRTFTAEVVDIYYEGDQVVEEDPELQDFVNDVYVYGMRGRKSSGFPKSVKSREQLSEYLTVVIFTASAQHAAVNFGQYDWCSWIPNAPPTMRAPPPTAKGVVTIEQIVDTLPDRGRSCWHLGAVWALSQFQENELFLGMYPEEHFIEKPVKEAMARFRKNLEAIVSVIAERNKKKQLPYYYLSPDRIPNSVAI
Procedure: 1. 5-Lipoxygenase enzyme assay
1) Bioassay Using FOX Reagent
Each test compound (final concentration=1 μM) was added to a lysate (7 μg) obtained from 5-LO expressed insect cells and reaction was performed at room temperature for 3 minutes. Then, arachidonic acid (40 μM) was added as enzyme substrate and reaction was further performed at room temperature for 4 minutes. 100 μL of a FOX reagent (sulfuric acid 25 mM, xylenol orange 100 μM, FeSO4 100 μM, methanol/water=9:1) was added thereto and then, after 5 minutes, absorbance was measured at 575 nm.

SMILES	Cell-based assay (% inhibition, at 1 μM) [1] [%]	Mouse ear edema model (in vivo assay): Thickness (Mouse ear edema)	Mouse ear edema model (in vivo assay): MPO (Mouse ear edema)	5-LO enzyme assay (% inhibition, at 1 μM) (5-LO) [%]	inhibition at 1 µM (5-LO) [%]
COc1ccc(CNc2ccc3c(c2)C=CC(C)(CN(C)S(=O)(=O)c2ccccc2)O3)cc1 (centres unmarked) [1-1-1]	82	Thickness 62%	MPO 34%	86	
CN(CC1(C)C=Cc2cc(NCc3ccc(C#N)cc3)ccc2O1)S(=O)(=O)c1ccccc1 (centres unmarked) [1-1-7]	71			80	
CN(CC1(C)C=Cc2cc(NCc3ccc(F)cc3)ccc2O1)S(=O)(=O)c1ccccc1 (centres unmarked) [1-1-10]	81	Thickness 60%	MPO 27%	87	
CN(CC1(C)C=Cc2cc(NCc3cccc(F)c3)ccc2O1)S(=O)(=O)c1ccccc1 (centres unmarked) [1-1-11]	58			73	
CN(CC1(C)C=Cc2cc(NCc3ccsc3)ccc2O1)S(=O)(=O)c1ccccc1 (centres unmarked) [1-1-24]					44
COc1ccc(S(=O)(=O)N(C)CC2(C)C=Cc3cc(NCc4ccc(C)s4)ccc3O2)cc1 (centres unmarked) [1-1-40]	38			45	
COc1ccc(S(=O)(=O)N(C)CC2(C)C=Cc3cc(NCc4ccsc4)ccc3O2)cc1 (centres unmarked) [1-1-51]	36			48	
CCOC(OCC)c1ccc(CNc2ccc3c(c2)C=CC(C)(CN(C)S(=O)(=O)c2ccc(C)cc2)O3)cc1 (centres unmarked) [1-1-103]	52			63	
CN(CC1(C)C=Cc2cc(NCc3ccsc3)ccc2O1)S(=O)(=O)c1ccc(C(C)(C)C)cc1 (centres unmarked) [1-1-132]	35			47	
COc1ccc(CNc2ccc3c(c2)C=CC(C)(CN(C)S(=O)(=O)Cc2ccccc2)O3)cc1 (centres unmarked) [1-1-163]	43			61	
CN(CC1(C)C=Cc2cc(NCc3ccncc3)ccc2O1)S(=O)(=O)Cc1ccccc1 (centres unmarked) [1-1-183]					45
COc1ccc(CNc2ccc3c(c2)C=CC(C)(CN(C)S(=O)(=O)c2ccc(Cl)cc2)O3)cc1 (centres unmarked) [1-1-217]	56			70	
COc1ccc(CNc2ccc3c(c2)C=CC(C)(CN(C)S(=O)(=O)c2ccc(F)cc2)O3)cc1 (centres unmarked) [1-1-244]	41			67	
Cc1ccc(CNc2ccc3c(c2)C=CC(C)(CN(C)S(=O)(=O)c2ccc(F)cc2)O3)s1 (centres unmarked) [1-1-256]	63			79	
CCCS(=O)(=O)N(C)CC1(C)C=Cc2cc(NCc3ccc(OC)cc3)ccc2O1 (centres unmarked) [1-1-298]	47			73	
Cc1cc2c(cc1NCc1ccc(C#N)cc1)C=CC(C)(CN(C)S(=O)(=O)c1ccccc1)O2 (centres unmarked) [1-2-7]	61			79	
Cc1cc2c(cc1NCc1cccs1)C=CC(C)(CN(C)S(=O)(=O)c1ccccc1)O2 (centres unmarked) [1-2-23]	74			80	
CC(c1cc2ccccc2s1)N(O)C(N)=O (centres unmarked) [reference compound]		67%	38%		
